Data: patent publication US20180104224A1, “PHARMACEUTICAL COMPOSITIONS COMPRISING ANTIBACTERIAL AGENTS” (priority 2014, published 2018)

Columns and labels:
[1] = system: highly resistant strains of Pseudomonas aeruginosa; experiment: MIC determination, all strains; format: cell-based; conditions: highly resistant strains of P. aeruginosa
Description: (§1) The antibacterial activity of combinations according to the invention against resistant bacterial strains was investigated. Minimum Inhibitory Concentration (MIC) determination for the combinations according to invention was carried out in Muller Hinton Agar (MHA) (BD, USA) according to Clinical and Laboratory Standards Institute (CLSI) recommendations, (Clinical and Laboratory Standards Institute (CLSI), Performance Standards for Antimicrobial Susceptibility Testing, 20th Informational Supplement, M 100-S20, Volume 30, No. 1, 2010). In short, the test strains were adjusted to deliver about 10^4 CFU per spot with a multipoint inoculator (Applied Quality Services, UK). The plates were pored with MHA containing doubling concentration range of the test combinations according to invention. The plates were inoculated and were incubated at 35° C. for 18 hours.
The results on antibacterial activity of a carbapenem antibacterial agent selected from imipenem, meropenem, ertapenem and doripenem alone and in combination with Compound A or Compound B, against highly resistant strains of Pseudomonas aeruginosa are given in Table 1. […] For example, P. aeruginosa 2779 harbors resistance due to increased AmpC expression (300 times) and increased efflux; P. aeruginosa 1405 harbors resistance due to increased AmpC expression (600 times), reduced OprD expression and increased efflux; P. aeruginosa R 70 harbors resistance due to reduced OprD expression and increased efflux; and P. aeruginosa J 154 harbors resistance due to reduced OprD.

[2] = system: Pseudomonas aeruginosa 1405; experiment: Time kill study; format: cell-based; conditions: P. aeruginosa 1405; for Bacterial count (Log10 CFU/ml) 0 hour / Bacterial count (Log10 CFU/ml) 2 hour / Bacterial count (Log10 CFU/ml) 4 hour / Bacterial count (Log10 CFU/ml) 6 hour: single agent 16 mcg/ml
Description: (§2) The synergistic killing effect of the combinations according to invention was studied by performing time kill studies. In a typical time kill study, the freshly grown cultures were diluted to the required cell density (initial starting inoculum) in Cation adjusted Muller Hinton broth medium (BD, USA). The antibacterial agents (either alone or in combination) at the required concentrations were added into the culture-containing medium. The samples were incubated under shaking condition (120 rpm) at 37° C. Enumeration of viable bacterial count was done every 2 hour by diluting in normal saline and plating on to the Tryptic Soya Agar plates (BD, USA). The plates were incubated for 24 hours to arrive at the viable bacterial count. The results are expressed in terms of Log10 CFU per ml. In general, the decrease of 1 Log10 CFU/ml, corresponds to 90% killing of bacteria.

[3] = system: Pseudomonas aeruginosa R70; experiment: Time kill study; format: cell-based; conditions: P. aeruginosa R70
Description: as §2

P. aeruginosa 1405 = experiment: MIC determination in Muller Hinton Agar (CLSI); format: cell-based, Pseudomonas aeruginosa;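 further: MIC read as lowest concentration giving complete growth inhibition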
Description: as §1

P. aeruginosa 2779 = experiment: MIC determination in Muller Hinton Agar (CLSI); format: cell-based, Pseudomonas aeruginosa;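 further: MIC read as lowest concentration giving complete growth inhibition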
Description: as §1

P. aeruginosa J 154 = experiment: MIC determination in Muller Hinton Agar (CLSI); format: cell-based, Pseudomonas aeruginosa;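 on MIC (mcg/ml) of carbapenem in presence of [A] at 4 mcg/ml: MIC read as lowest concentration giving complete growth inhibition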;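 on MIC (mcg/ml) of carbapenem in presence of [B] at 4 mcg/ml: MIC read as lowest concentration giving complete growth inhibition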
Description: as §1

P. aeruginosa R 70 = experiment: MIC determination in Muller Hinton Agar (CLSI); format: cell-based, Pseudomonas aeruginosa
Description: as §1

[4] = Table 4, single agent 16 mcg/ml
[5] = Table 5, single agent 16 mcg/ml
[6] = in presence of Compound A at 4 mcg/ml
[7] = in presence of Compound B at 4 mcg/ml

For `C[C@@H](O)[C@H]1C(=O)N2C(C(=O)O)=C(S[C@@H]3CN[C@H](C(=O)Nc4cccc(C(=O)O)c4)C3)[C@H](C)[C@H]12` [Ertapenem, ertapenem], the “MIC values (in words)” value ([1]; in presence of Compound A or Compound B) was “decreased significantly”, the “MIC values (in words)” value ([1]; when used alone) was “higher MIC values” and the “effect on bacterial counts through out the duration of the study (in words)” value ([2]; when used alone) was “failed to reduce the bacterial counts”. The “Bacterial count (Log10 CFU/ml) 0 hour” value ([2]; Table 2) was 6.84 Log10 CFU/ml, the “Bacterial count (Log10 CFU/ml) 2 hour” value ([2]; Table 2) was 6.90 Log10 CFU/ml and the “Bacterial count (Log10 CFU/ml) 4 hour” value ([2]; Table 2) was 7.87 Log10 CFU/ml. For the same molecule, the “Bacterial count (Log10 CFU/ml) 6 hour” value ([2]; Table 2) was 7.65 Log10 CFU/ml, the “Bacterial count (Log10 CFU/ml) 0 hour” value ([2]; Table 3) was 6.81 Log10 CFU/ml and the “Bacterial count (Log10 CFU/ml) 2 hour” value ([2]; Table 3) was 6.90 Log10 CFU/ml. For the same molecule, the “Bacterial count (Log10 CFU/ml) 4 hour” value ([2]; Table 3) was 7.87 Log10 CFU/ml, the “Bacterial count (Log10 CFU/ml) 6 hour” value ([2]; Table 3) was 7.65 Log10 CFU/ml and the “effect on bacterial counts through out the duration of the study (in words)” value ([3]; when used alone) was “failed to reduce the bacterial counts”. For the same molecule, the “Bacterial count (Log10 CFU/ml) 0 hour” value [3, 4] was 6.62 Log10 CFU/ml, the “Bacterial count (Log10 CFU/ml) 2 hour” value [3, 4] was 6.87 Log10 CFU/ml and the “Bacterial count (Log10 CFU/ml) 4 hour” value ([3]; Table 4, single agent 16 mcg/ml, 4 hour) was 7.47 Log10 CFU/ml. For the same molecule, the “Bacterial count (Log10 CFU/ml) 6 hour” value [3, 4] was 8.16 Log10 CFU/ml, the “Bacterial count (Log10 CFU/ml) 0 hour” value [3, 5] was 6.44 Log10 CFU/ml and the “Bacterial count (Log10 CFU/ml) 2 hour” value [3, 5] was 6.46 Log10 CFU/ml. The “Bacterial count (Log10 CFU/ml) 4 hours” value ([3]; Table 5, single agent 16 mcg/ml, 4 hours) was 7.17 Log10 CFU/ml, the “Bacterial count (Log10 CFU/ml) 6 hour” value [3, 5] was 7.13 Log10 CFU/ml and the “MIC (mcg/ml) of carbapenem in presence of [A] at 4 mcg/ml” value (“MIC (mcg/ml) … [A] at 4 mcg/ml” for short) (P. aeruginosa 1405; [6]) was 128 µg/mL. The “MIC (mcg/ml) of carbapenem in presence of [B] at 4 mcg/ml” value (“MIC (mcg/ml) … [B] at 4 mcg/ml” for short) (P. aeruginosa 1405; [7]) was 64 µg/mL, the “MIC (mcg/ml) … [A] at 4 mcg/ml” value (P. aeruginosa 2779; [6]) was 4 µg/mL and the “MIC (mcg/ml) … [B] at 4 mcg/ml” value (P. aeruginosa 2779; [7]) was 4 µg/mL. For the same molecule, the MIC (P. aeruginosa J 154; Pseudomonas aeruginosa, J154, agent alone, P. aeruginosa J 154 [Reduced OprD]) was greater than 128 mg/L, the “MIC (mcg/ml) … [A] at 4 mcg/ml” value (P. aeruginosa J 154; in presence of Compound A at 4 mcg/ml, P. aeruginosa J 154) was greater than 128 µg/mL and the “MIC (mcg/ml) … [B] at 4 mcg/ml” value (P. aeruginosa J 154; in presence of Compound B at 4 mcg/ml, P. aeruginosa J 154) was 128 µg/mL. For the same molecule, the MIC (P. aeruginosa R 70; Pseudomonas aeruginosa, R70, 18 h, agent alone, P. aeruginosa R 70 [Reduced OprD + increased efflux]) was greater than 128 mg/L, the “MIC (mcg/ml) … [A] at 4 mcg/ml” value (P. aeruginosa R 70; in presence of Compound A at 4 mcg/ml, P. aeruginosa R 70) was greater than 128 µg/mL and the “MIC (mcg/ml) … [B] at 4 mcg/ml” value (P. aeruginosa R 70; in presence of Compound B at 4 mcg/ml, P. aeruginosa R 70) was no more than 0.12 µg/mL.
